Measured values taken from article PMC10047683, “A Novel Family of Lysosomotropic Tetracyclic Compounds for Treating Leukemia” (Cancers, 2023).

What was measured:
[1] = test system: peripheral blood mononuclear cells from healthy donors' buffy coats; experiment: Cytotoxicity in healthy donor blood cells; assay type: cell-based, human; settings: 72 h
From the text: Primary AML samples were obtained at diagnosis from patients diagnosed at Hospital Clínic of Barcelona (Spain) and Hospital Germans Trias i Pujol (Badalona, Spain). AML diagnosis, classification, and risk stratification were based on the latest revised WHO criteria (Supplementary Table S1). Clinical characteristics of AML patients are summarized in Supplementary Table S1. Mononuclear cells (MNCs) were isolated with Ficoll density gradient centrifugation (GE Healthcare, Chicago, IL, USA). All patients provided their written informed consent in accordance with the Declaration of Helsinki, and the study was approved by the corresponding ethics committees. Mature blood MNCs were isolated from healthy donors’ buffy coats provided by Banc de Sang i Teixits (BSiT, Barcelona, Spain). Umbilical-cord blood was provided by BSiT, and MNCs were depleted for lineage marker-positive cells using magnetic separation with the Human Lineage Cell Depletion kit (Miltenyi Biotec, North Rhine-Westphalia, Germany) following the manufacturer’s recommendations.
(§1) First, 2 × 10^5 (72 h assays in cell lines (Supplementary File S1)), 3 × 10^5 (48 h assays in cell lines) or 7.5 × 10^5 (primary AML, healthy donor buffy coats) cells per mL were cultured in 96-well plates, and all drugs were added at the indicated concentrations. In α-tocopherol experiments, cells were treated with growing concentrations of α-tocopherol and EDK drugs for 48 h. In the NAC and 3MA experiments, treatment was simultaneous with EDK compounds. In glucose deprivation experiments, cells were cultivated with a standard medium (glucose high, 2 g/L), a standard medium without glucose, or a standard medium with galactose (2 g/L) and without glucose. Cell viability was measured via 7-AAD (eBioscience) exclusion and Hoechst33342 (Sigma-Aldrich, St. Louis, MO, USA) positivity staining via flow cytometry, and the cell count was obtained through volume. In the experiments with the primary cells, analyses were performed inside the blast population as detected via blast gates (CD45^low SSC^int). For solid tumor cell lines, viability was analyzed using CellTiter-Glo® Luminescent Cell Viability Assay (Promega).

HBL2 = experiment: Pancancer cell line panel viability; assay type: cell-based; settings: 10 µM, 48 h
Protocol: as §1
(§2) AML cell lines and cell cultures
(§3) Cell lines HL-60 (ACC-3), KG-1 (ACC-14), MonoMac-1 (ACC-252), Kasumi-1 […]
(§4) obtained from DSMZ. Cell lines THP-1 (TIB-202TM), MCF-7 (HTB-22™), MDA- […]
(§5) 3216™) and HS-5 (CRL-11882™) were obtained from ATCC. HBL-2 cell line was kindly supplied by Dr. Pérez-Galán (IDIBAPS, Barcelona, Spain). SKM-1 and U937 were kindly provided by Dr. Marcus Buschbeck (IJC, Badalona, Spain). All cell lines were cultured in the conditions indicated by the providers, and were tested for mycoplasma on a monthly basis.
(§6) All drugs were resuspended in H2O (Thermo Fischer Scientific), DMSO (Sigma-Aldrich) or ethanol (VWR) according to manufacturer’s specifications. - tocopherol, 3-methyladenine (3MA), arsenic trioxide (ATO) and N-acetyl-L-cysteine (NAC) were purchased from Sigma Aldrich. Chloroquine diphosphate was purchased from Merck. Etoposide and ionomycin were purchased from […]
(§7) (1 picture or pasted object on this page, not shown here)

MCF-7 = experiment: Pancancer cell line panel viability; assay type: cell-based; settings: 10 µM, 48 h
Protocol: as §1, §2, §3, §4, §5, §6, §7

HOP62 = experiment: Pancancer cell line panel viability; assay type: cell-based; settings: 10 µM, 48 h
Protocol: as §1, §2, §3, §4, §5, §6, §7

U266 = experiment: Pancancer cell line panel viability; assay type: cell-based; settings: 10 µM, 48 h
Protocol: as §1, §2, §3, §4, §5, §6, §7

MDA-MB-435 = experiment: Pancancer cell line panel viability; assay type: cell-based; settings: 10 µM, 48 h
Protocol: as §1, §2, §3, §4, §5, §6, §7

GRANTA = experiment: Pancancer cell line panel viability; assay type: cell-based; settings: 10 µM, 48 h
Protocol: as §1, §2, §3, §4, §5, §6, §7

RAMOS = experiment: Pancancer cell line panel viability; assay type: cell-based; settings: 10 µM, 48 h
Protocol: as §1, §2, §3, §4, §5, §6, §7

SR = experiment: Pancancer cell line panel viability; assay type: cell-based; settings: 10 µM, 48 h
Protocol: as §1, §2, §3, §4, §5, §6, §7

A549 = experiment: Pancancer cell line panel viability; assay type: cell-based; settings: 10 µM, 48 h
Protocol: as §1, §2, §3, §4, §5, §6, §7

OVCAR = experiment: Pancancer cell line panel viability; assay type: cell-based; settings: 10 µM, 48 h
Protocol: as §1, §2, §3, §4, §5, §6, §7

HCT-116 = experiment: Pancancer cell line panel viability; assay type: cell-based; settings: 10 µM, 48 h
Protocol: as §1, §2, §3, §4, §5, §6, §7

JJN3 = experiment: Pancancer cell line panel viability; assay type: cell-based; settings: 10 µM, 48 h
Protocol: as §1, §2, §3, §4, §5, §6, §7

K562 = experiment: Pancancer cell line panel viability; assay type: cell-based; settings: 10 µM, 48 h
Protocol: as §1, §2, §3, §4, §5, §6, §7

PC-3 = experiment: Pancancer cell line panel viability; assay type: cell-based; settings: 10 µM, 48 h
Protocol: as §1, §2, §3, §4, §5, §6, §7

DU-145 = experiment: Pancancer cell line panel viability; assay type: cell-based; settings: 10 µM, 48 h
Protocol: as §1, §2, §3, §4, §5, §6, §7

CAKI = experiment: Pancancer cell line panel viability; assay type: cell-based; settings: 10 µM, 48 h
Protocol: as §1, §2, §3, §4, §5, §6, §7

M14 = experiment: Pancancer cell line panel viability; assay type: cell-based; settings: 10 µM, 48 h
Protocol: as §1, §2, §3, §4, §5, §6, §7

MDA-MB-231 = experiment: Pancancer cell line panel viability; assay type: cell-based; settings: 10 µM, 48 h
Protocol: as §1, §2, §3, §4, §5, §6, §7

NCI = experiment: Pancancer cell line panel viability; assay type: cell-based; settings: 10 µM, 48 h
Protocol: as §1, §2, §3, §4, §5, §6, §7

MOLT4 = experiment: Pancancer cell line panel viability; assay type: cell-based; settings: 10 µM, 48 h
Protocol: as §1, §2, §3, §4, §5, §6, §7

HCT-15 = experiment: Pancancer cell line panel viability; assay type: cell-based; settings: 10 µM, 48 h
Protocol: as §1, §2, §3, §4, §5, §6, §7

CN1CCC(=C2c3ccccc3-c3c2sc2ccccc32)CC1 [EDK-87]
healthy-donor blood cells affected ([1]; 9 healthy donors, EDK-87 10 and 25 µM, EDK-88 5 and 10 µM assayed): 33.2% ± 8.1
# Live cells refer to control ([1]; BC sample #20, 5 µM): 140%
# Live cells refer to control ([1]; BC sample #20, 10 µM): 113%
# Live cells refer to control ([1]; BC sample #26, 5 µM): 78%
# Live cells refer to control ([1]; BC sample #26, 10 µM): 65%
# Live cells refer to control ([1]; BC sample #31, 5 µM): 83%
# Live cells refer to control ([1]; BC sample #31, 10 µM): 56%
# Live cells refer to control ([1]; BC sample #32, 5 µM): 81%
# Live cells refer to control ([1]; BC sample #32, 10 µM): 41%
# Live cells refer to control ([1]; BC sample #32, 25 µM): 72%
# Live cells refer to control ([1]; BC sample #41, 5 µM): 77%
# Live cells refer to control ([1]; BC sample #41, 10 µM): 87%
# Live cells refer to control ([1]; BC sample #44, 5 µM): 74%
# Live cells refer to control ([1]; BC sample #44, 10 µM): 76%
# Live cells refer to control ([1]; BC sample #44, 25 µM): 80%
# Live cells refer to control ([1]; BC sample #51, 5 µM): 101%
# Live cells refer to control ([1]; BC sample #51, 10 µM): 77%
# Live cells refer to control ([1]; BC sample #59, 5 µM): 89%
# Live cells refer to control ([1]; BC sample #59, 10 µM): 41%
# Live cells refer to control ([1]; BC sample #59, 25 µM): 13%
# Live cells refer to control ([1]; BC sample #63, 5 µM): 92%
# Live cells refer to control ([1]; BC sample #63, 10 µM): 45%
# Live cells refer to control ([1]; BC sample #63, 25 µM): 22%
# Live cells refer to control (HBL2): 58%
# Live cells refer to control (MCF-7): 32%
# Live cells refer to control (HOP62): 44%
# Live cells refer to control (U266): 70%
# Live cells refer to control (MDA-MB-435): 11%
# Live cells refer to control (GRANTA): 35%
# Live cells refer to control (RAMOS): 74%
# Live cells refer to control (SR): 42%
# Live cells refer to control (A549): 74%
# Live cells refer to control (OVCAR): 59%
# Live cells refer to control (HCT-116): 64%
# Live cells refer to control (JJN3): 55%
# Live cells refer to control (K562): 87%
# Live cells refer to control (PC-3): 65%
# Live cells refer to control (DU-145): 57%
# Live cells refer to control (CAKI): 58%
# Live cells refer to control (M14): 21%
# Live cells refer to control (MDA-MB-231): 47%
# Live cells refer to control (NCI): 45%
# Live cells refer to control (MOLT4): 25%
# Live cells refer to control (HCT-15): 52%
